Positions of bridges follow the written chain, without caps; N, C: chain ends. Non-standard residues stand in square brackets, D forms with d. Residues, ends and D or L forms follow the SMILES beside them. Trp(1-Me) = Cn1cc(C[C@H](N)C(=O)O)c2ccccc21
Key:
Assay in all cases: cell-based
hNav1.7 = hNav1.7 (Homo sapiens, UniProt Q15858); type: cell-based; settings: IonWorks Quattro, use-dependent protocol, hNav1.7; read-out: IWQ Use Nav1.7
hNav1.5 = hNav1.5 (Homo sapiens, UniProt Q14524); settings: IonWorks Quattro, use-dependent protocol, hNav1.5; read-out: IWQ Use Nav1.5
hNav1.3 = hNav1.3 (Homo sapiens, UniProt Q9NY46); settings: IonWorks Quattro, use-dependent protocol, hNav1.3; read-out: IWQ Use Nav1.3
Sequence of hNav1.3 (Q9NY46 whole entry, looked up): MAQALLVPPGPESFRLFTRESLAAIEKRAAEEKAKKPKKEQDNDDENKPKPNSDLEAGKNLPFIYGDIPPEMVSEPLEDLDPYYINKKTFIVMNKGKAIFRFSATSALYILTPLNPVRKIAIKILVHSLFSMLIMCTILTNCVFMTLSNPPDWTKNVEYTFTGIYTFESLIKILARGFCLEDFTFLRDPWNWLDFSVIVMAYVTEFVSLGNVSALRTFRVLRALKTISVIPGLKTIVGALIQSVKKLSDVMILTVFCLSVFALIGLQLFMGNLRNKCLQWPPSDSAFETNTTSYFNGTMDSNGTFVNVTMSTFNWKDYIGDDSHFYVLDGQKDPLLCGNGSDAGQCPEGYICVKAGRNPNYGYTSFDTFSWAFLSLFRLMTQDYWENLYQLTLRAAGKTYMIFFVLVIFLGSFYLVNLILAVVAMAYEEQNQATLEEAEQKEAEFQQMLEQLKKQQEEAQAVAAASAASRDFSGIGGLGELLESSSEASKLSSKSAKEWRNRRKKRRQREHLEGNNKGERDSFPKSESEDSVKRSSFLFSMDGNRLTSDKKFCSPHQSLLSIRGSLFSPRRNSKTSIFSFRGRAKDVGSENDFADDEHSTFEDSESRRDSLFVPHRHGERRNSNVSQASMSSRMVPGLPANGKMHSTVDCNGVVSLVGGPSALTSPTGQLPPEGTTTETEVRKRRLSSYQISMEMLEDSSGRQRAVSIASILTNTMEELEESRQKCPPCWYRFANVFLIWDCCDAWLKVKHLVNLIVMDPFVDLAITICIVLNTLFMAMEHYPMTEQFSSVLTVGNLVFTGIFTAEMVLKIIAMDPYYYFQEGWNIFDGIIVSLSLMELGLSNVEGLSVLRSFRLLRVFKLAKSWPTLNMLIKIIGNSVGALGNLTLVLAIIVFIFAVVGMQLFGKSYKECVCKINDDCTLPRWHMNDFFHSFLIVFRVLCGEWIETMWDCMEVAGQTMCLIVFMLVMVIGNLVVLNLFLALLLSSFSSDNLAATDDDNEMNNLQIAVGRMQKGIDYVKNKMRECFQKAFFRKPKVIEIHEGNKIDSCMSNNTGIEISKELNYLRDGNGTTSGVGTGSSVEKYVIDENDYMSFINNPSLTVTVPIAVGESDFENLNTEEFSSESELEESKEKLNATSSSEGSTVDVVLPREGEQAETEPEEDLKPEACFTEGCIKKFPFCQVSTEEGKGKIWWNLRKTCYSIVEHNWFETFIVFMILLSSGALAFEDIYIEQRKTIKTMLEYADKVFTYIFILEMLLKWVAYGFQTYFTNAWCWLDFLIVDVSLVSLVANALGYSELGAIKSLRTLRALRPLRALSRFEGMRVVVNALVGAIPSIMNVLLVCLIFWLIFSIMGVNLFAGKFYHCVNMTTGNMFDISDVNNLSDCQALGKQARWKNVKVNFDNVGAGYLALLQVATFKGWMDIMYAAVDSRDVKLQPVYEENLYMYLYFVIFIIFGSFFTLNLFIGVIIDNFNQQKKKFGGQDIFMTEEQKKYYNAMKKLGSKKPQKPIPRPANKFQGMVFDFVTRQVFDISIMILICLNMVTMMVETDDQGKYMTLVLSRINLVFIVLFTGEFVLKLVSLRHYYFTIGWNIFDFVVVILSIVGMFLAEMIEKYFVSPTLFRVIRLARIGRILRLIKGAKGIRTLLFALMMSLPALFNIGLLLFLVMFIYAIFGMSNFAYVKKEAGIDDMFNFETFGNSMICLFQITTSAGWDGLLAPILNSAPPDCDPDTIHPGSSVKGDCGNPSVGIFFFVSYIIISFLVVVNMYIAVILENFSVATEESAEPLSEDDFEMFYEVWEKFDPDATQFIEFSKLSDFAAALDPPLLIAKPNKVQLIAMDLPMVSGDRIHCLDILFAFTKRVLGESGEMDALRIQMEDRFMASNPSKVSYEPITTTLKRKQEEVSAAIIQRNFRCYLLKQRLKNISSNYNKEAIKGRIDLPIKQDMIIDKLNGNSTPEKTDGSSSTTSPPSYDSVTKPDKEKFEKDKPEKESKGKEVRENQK

Sequence of hNav1.7 (Q15858 whole entry, looked up): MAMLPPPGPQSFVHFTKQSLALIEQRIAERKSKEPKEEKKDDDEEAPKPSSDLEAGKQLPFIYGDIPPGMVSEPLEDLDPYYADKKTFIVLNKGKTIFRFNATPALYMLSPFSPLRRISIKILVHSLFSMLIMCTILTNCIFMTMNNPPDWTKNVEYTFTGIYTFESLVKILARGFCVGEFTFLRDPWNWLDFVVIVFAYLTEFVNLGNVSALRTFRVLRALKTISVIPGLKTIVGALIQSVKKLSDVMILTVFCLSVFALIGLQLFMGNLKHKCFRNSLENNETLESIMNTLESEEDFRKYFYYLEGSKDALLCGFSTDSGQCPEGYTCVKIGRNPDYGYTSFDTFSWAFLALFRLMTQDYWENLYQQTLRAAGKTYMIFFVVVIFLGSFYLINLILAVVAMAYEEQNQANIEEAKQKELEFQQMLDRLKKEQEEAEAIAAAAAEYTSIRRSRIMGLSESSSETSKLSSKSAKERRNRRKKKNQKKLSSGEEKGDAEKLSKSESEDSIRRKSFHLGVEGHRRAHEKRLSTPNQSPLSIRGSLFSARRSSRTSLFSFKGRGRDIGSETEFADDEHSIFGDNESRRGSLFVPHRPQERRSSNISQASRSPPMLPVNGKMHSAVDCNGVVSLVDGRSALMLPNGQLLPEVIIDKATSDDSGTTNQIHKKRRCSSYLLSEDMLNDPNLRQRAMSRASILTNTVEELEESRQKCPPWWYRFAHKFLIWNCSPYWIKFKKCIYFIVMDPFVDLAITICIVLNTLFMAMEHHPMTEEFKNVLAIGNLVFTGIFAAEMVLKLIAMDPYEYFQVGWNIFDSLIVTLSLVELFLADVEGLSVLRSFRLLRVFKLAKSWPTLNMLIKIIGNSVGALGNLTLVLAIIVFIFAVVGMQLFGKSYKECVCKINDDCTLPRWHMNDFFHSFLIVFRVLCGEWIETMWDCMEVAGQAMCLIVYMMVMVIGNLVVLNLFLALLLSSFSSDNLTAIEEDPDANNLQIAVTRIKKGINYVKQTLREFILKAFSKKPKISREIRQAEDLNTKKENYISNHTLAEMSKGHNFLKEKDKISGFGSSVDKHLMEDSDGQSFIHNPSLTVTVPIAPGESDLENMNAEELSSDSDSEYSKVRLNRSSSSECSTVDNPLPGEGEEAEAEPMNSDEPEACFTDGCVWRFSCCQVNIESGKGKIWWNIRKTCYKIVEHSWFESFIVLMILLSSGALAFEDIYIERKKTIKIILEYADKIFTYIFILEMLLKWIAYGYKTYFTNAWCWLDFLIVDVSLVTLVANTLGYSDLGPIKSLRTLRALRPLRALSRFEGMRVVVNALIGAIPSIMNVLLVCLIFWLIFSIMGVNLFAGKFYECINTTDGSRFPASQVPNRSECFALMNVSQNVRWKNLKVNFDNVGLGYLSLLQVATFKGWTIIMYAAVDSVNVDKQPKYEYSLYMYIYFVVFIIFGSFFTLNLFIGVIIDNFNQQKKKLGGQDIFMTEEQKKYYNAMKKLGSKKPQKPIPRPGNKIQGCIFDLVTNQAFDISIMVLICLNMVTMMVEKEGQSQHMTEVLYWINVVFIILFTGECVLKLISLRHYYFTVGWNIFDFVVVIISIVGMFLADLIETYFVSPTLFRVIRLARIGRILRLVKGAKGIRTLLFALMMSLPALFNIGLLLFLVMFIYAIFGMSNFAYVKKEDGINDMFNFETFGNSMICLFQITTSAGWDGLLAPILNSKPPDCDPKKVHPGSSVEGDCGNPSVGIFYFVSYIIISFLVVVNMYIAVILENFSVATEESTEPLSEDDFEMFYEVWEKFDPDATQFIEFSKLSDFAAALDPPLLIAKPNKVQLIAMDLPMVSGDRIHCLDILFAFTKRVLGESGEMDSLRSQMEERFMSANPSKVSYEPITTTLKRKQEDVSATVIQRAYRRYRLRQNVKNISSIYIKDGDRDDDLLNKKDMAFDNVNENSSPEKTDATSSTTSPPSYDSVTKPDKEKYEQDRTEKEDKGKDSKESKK

Structure (SMILES) | IC50 (hNav1.7) [nM] | IC50 (hNav1.5) [nM] | IC50 (hNav1.3) [nM]
CC[C@H](C)[C@@H]1NC(=O)[C@@H]2CSSC[C@@H]3NC(=O)[C@H](C(C)C)NC(=O)[C@H](CC(C)C)NC(=O)[C@H](CC(N)=O)NC(=O)[C@@H]4CCCN4C(=O)[C@H](CCCNC(=N)N)NC(=O)[C@H](CSSC[C@H](NC(=O)[C@@H](N)CC(=O)O)C(=O)N[C@@H](CC(C)C)C(=O)NCC(=O)N[C@@H](C)C(=O)N[C@@H](CCSC)C(=O)N[C@@H](CCCNC(=N)N)C(=O)N[C@@H](CCCCN)C(=O)N2)NC(=O)[C@H](CSSC[C@@H](C(=O)N[C@@H](CCCCN)C(=O)N[C@@H](Cc2cn(C)c4ccccc24)C(=O)N[C@H](C(=O)N[C@@H](Cc2ccccc2)C(N)=O)C(C)C)NC(=O)[C@H](Cc2c[nH]c4ccccc24)NC(=O)[C@H](CCCCN)NC(=O)[C@H](Cc2c[nH]cn2)NC(=O)[C@H]([C@@H](C)O)NC(=O)[C@H](CCCNC(=N)N)NC(=O)[C@H](CO)NC3=O)NC(=O)[C@H](CCCCN)NC(=O)[C@H](CC(=O)O)NC(=O)[C@H](CC(N)=O)NC(=O)[C@H](CC(=O)O)NC(=O)[C@@H]2CCCN2C1=O [compound 692] (H-DCLGAMRKCIPDNDKCCRPNLVCSRTHKWCK[Trp(1-Me)]VF-NH2; disulfide 2-17, 9-23, 16-30) | 180 | > 5000 | 630
CC[C@H](C)[C@@H]1NC(=O)[C@@H]2CSSC[C@@H]3NC(=O)[C@H](C(C)C)NC(=O)[C@H](CC(C)C)NC(=O)[C@H](CC(N)=O)NC(=O)[C@@H]4CCCN4C(=O)[C@H](CCCNC(=N)N)NC(=O)[C@H](CSSC[C@H](NC(=O)[C@@H](N)CC(=O)O)C(=O)N[C@@H](CC(C)C)C(=O)NCC(=O)N[C@@H](CCSC)C(=O)N[C@@H](CCSC)C(=O)N[C@@H](CCCNC(=N)N)C(=O)N[C@@H](CCCCN)C(=O)N2)NC(=O)[C@H](CSSC[C@@H](C(=O)N[C@@H](CCCCN)C(=O)N[C@@H](Cc2cn(C)c4ccccc24)C(=O)N[C@H](C(=O)N[C@@H](Cc2ccccc2)C(N)=O)C(C)C)NC(=O)[C@H](Cc2c[nH]c4ccccc24)NC(=O)[C@H](CCCCN)NC(=O)[C@H](Cc2c[nH]cn2)NC(=O)[C@H]([C@@H](C)O)NC(=O)[C@H](CCCNC(=N)N)NC(=O)[C@H](CO)NC3=O)NC(=O)[C@H](CCCCN)NC(=O)[C@H](CC(=O)O)NC(=O)[C@H](CC(N)=O)NC(=O)[C@H](CC(=O)O)NC(=O)[C@@H]2CCCN2C1=O [compound 693] (H-DCLGMMRKCIPDNDKCCRPNLVCSRTHKWCK[Trp(1-Me)]VF-NH2; disulfide 2-17, 9-23, 16-30) | 46 | > 5000 | 100
CC[C@H](C)[C@@H]1NC(=O)[C@@H]2CSSC[C@@H]3NC(=O)[C@H](C(C)C)NC(=O)[C@H](CC(C)C)NC(=O)[C@H](CC(N)=O)NC(=O)[C@@H]4CCCN4C(=O)[C@H](CCCNC(=N)N)NC(=O)[C@H](CSSC[C@H](NC(=O)[C@@H](N)CC(=O)O)C(=O)N[C@@H](CC(C)C)C(=O)N[C@@H](CCCNC(=N)N)C(=O)N[C@@H](CCSC)C(=O)N[C@@H](CCSC)C(=O)N[C@@H](CCCNC(=N)N)C(=O)N[C@@H](CCCCN)C(=O)N2)NC(=O)[C@H](CSSC[C@@H](C(=O)N[C@@H](CCCCN)C(=O)N[C@@H](Cc2ccc(O)cc2)C(=O)N[C@H](C(=O)N[C@@H](Cc2ccccc2)C(N)=O)C(C)C)NC(=O)[C@H](Cc2c[nH]c4ccccc24)NC(=O)[C@H](CCCCN)NC(=O)[C@H](Cc2c[nH]cn2)NC(=O)[C@H]([C@@H](C)O)NC(=O)[C@H](CCCNC(=N)N)NC(=O)[C@H](CO)NC3=O)NC(=O)[C@H](CCCCN)NC(=O)[C@H](CC(=O)O)NC(=O)[C@H](CC(N)=O)NC(=O)[C@H](CC(=O)O)NC(=O)[C@@H]2CCCN2C1=O [compound 694] (H-DCLRMMRKCIPDNDKCCRPNLVCSRTHKWCKYVF-NH2; disulfide 2-17, 9-23, 16-30) | 80 | > 5000 | 290
CC[C@H](C)[C@@H]1NC(=O)[C@@H]2CSSC[C@@H]3NC(=O)[C@H](C(C)C)NC(=O)[C@H](CC(C)C)NC(=O)[C@H](CC(N)=O)NC(=O)[C@H](CO)NC(=O)[C@H](CCCNC(=N)N)NC(=O)[C@H](CSSC[C@H](NC(=O)[C@@H](N)CC(=O)O)C(=O)N[C@@H](CC(C)C)C(=O)NCC(=O)N[C@@H](Cc4ccccc4)C(=O)N[C@@H](CCSC)C(=O)N[C@@H](CCCNC(=N)N)C(=O)N[C@@H](CCCCN)C(=O)N2)NC(=O)[C@H](CSSC[C@@H](C(=O)N[C@@H](CCCCN)C(=O)N[C@@H](Cc2cn(C)c4ccccc24)C(=O)N[C@H](C(=O)N[C@@H](Cc2ccccc2)C(N)=O)C(C)C)NC(=O)[C@H](Cc2c[nH]c4ccccc24)NC(=O)[C@H](CCCCN)NC(=O)[C@H](Cc2c[nH]cn2)NC(=O)[C@H]([C@@H](C)O)NC(=O)[C@H](CCCNC(=N)N)NC(=O)[C@H](CO)NC3=O)NC(=O)[C@H](CCCCN)NC(=O)[C@H](CC(=O)O)NC(=O)[C@H](CC(N)=O)NC(=O)[C@H](CC(=O)O)NC(=O)[C@@H]2CCCN2C1=O [compound 695] (H-DCLGFMRKCIPDNDKCCRSNLVCSRTHKWCK[Trp(1-Me)]VF-NH2; disulfide 2-17, 9-23, 16-30) | 30 | > 5000 | 30
CC[C@H](C)[C@@H]1NC(=O)[C@@H]2CSSC[C@@H]3NC(=O)[C@H](C(C)C)NC(=O)[C@H](CC(C)C)NC(=O)[C@H](CC(N)=O)NC(=O)[C@@H]4CCCN4C(=O)[C@H](CCCNC(=N)N)NC(=O)[C@H](CSSC[C@H](NC(=O)[C@@H](N)CC(=O)O)C(=O)N[C@@H](CC(C)C)C(=O)NCC(=O)N[C@@H](C)C(=O)NCC(=O)N[C@@H](CCCNC(=N)N)C(=O)N[C@@H](CCCCN)C(=O)N2)NC(=O)[C@H](CSSC[C@@H](C(=O)N[C@@H](CCCCN)C(=O)N[C@@H](Cc2ccc(O)cc2)C(=O)N[C@H](C(=O)N[C@@H](Cc2ccccc2)C(N)=O)C(C)C)NC(=O)[C@H](Cc2c[nH]c4ccccc24)NC(=O)[C@H](CCCCN)NC(=O)[C@H](Cc2c[nH]cn2)NC(=O)[C@H]([C@@H](C)O)NC(=O)[C@H](CCCNC(=N)N)NC(=O)[C@H](CO)NC3=O)NC(=O)[C@H](CCCCN)NC(=O)[C@H](CC(=O)O)NC(=O)[C@H](CC(N)=O)NC(=O)[C@H](CC(=O)O)NC(=O)[C@@H]2CCCN2C1=O [compound 697] (H-DCLGAGRKCIPDNDKCCRPNLVCSRTHKWCKYVF-NH2; disulfide 2-17, 9-23, 16-30) | 8100 | > 5000 | 4400
CC[C@H](C)[C@@H]1NC(=O)[C@@H]2CSSC[C@@H]3NC(=O)[C@H](C(C)C)NC(=O)[C@H](CC(C)C)NC(=O)[C@H](CC(N)=O)NC(=O)[C@@H]4CCCN4C(=O)[C@H](CCCNC(=N)N)NC(=O)[C@H](CSSC[C@H](NC(=O)[C@@H](N)CC(=O)O)C(=O)N[C@@H](CC(C)C)C(=O)NCC(=O)N[C@@H](C)C(=O)N[C@@H](Cc4ccc(O)cc4)C(=O)N[C@@H](CCCNC(=N)N)C(=O)N[C@@H](CCCCN)C(=O)N2)NC(=O)[C@H](CSSC[C@@H](C(=O)N[C@@H](CCCCN)C(=O)N[C@@H](Cc2ccc(O)cc2)C(=O)N[C@H](C(=O)N[C@@H](Cc2ccccc2)C(N)=O)C(C)C)NC(=O)[C@H](Cc2c[nH]c4ccccc24)NC(=O)[C@H](CCCCN)NC(=O)[C@H](Cc2c[nH]cn2)NC(=O)[C@H]([C@@H](C)O)NC(=O)[C@H](CCCNC(=N)N)NC(=O)[C@H](CO)NC3=O)NC(=O)[C@H](CCCCN)NC(=O)[C@H](CC(=O)O)NC(=O)[C@H](CC(N)=O)NC(=O)[C@H](CC(=O)O)NC(=O)[C@@H]2CCCN2C1=O [compound 698] (H-DCLGAYRKCIPDNDKCCRPNLVCSRTHKWCKYVF-NH2; disulfide 2-17, 9-23, 16-30) | 4400 | > 5000 | > 5000
